In the experiment the test system is human AML cell line MV4;11. Nature of the experiment: Nude mouse xenograft model derived from human AML cell line MV4;11: tumor growth. Format: in vivo, mice. The settings on record: treated for 19 days. As for the experimental part:
MV4;11 (CRL-9591) cells were obtained from ATCC. According to the Catalogue of Somatic Mutations in Cancer of the Wellcome Trust Sanger Institute, UK, this cell line carries a mutation in the FLT3 gene. Cells were cultured in T175 tissue culture flasks at 37° C. and 5% CO2. The medium used was IMDM supplemented with 10% fetal calf serum, 1% NEAA, 1% sodium pyruvate and 1% glutamine.
To establish subcutaneous tumors, MV4;11 cells were harvested and resuspended in PBS+5% FCS at 5×10^7 cells/ml. 50 μl of the cell suspension containing 2.5×10^6 cells was then injected subcutaneously into the right flank of the mice (1 site per mouse). Growth factor reduced BD Matrigel™ Matrix (BD Biosciences) was added to the cell suspension at a ratio of 1:1 before the injection. When tumors were well established and had reached a tumor volume of ˜120 mm^3, mice were randomly distributed between the treatment and the vehicle control groups 14 days after injecting the cells.
The solution was freshly made up each injection day.
The application solution was prepared on each injection day.
Animals were treated for 19 days.

In the case of `CC[C@@H]1C(=O)N(C)c2cnc(Nc3ccc(C(=O)N[C@H]4CC[C@H](N5CCN(CC6CC6)CC5)CC4)cc3OC)nc2N1C(C)C` [Volasertib, N-[trans-4-[4-(cyclopropylmethyl)-1-piperazinyl]cyclohexyl]-4-[[(7R)-7-ethyl-5,6,7,8-tetrahydro-5-methyl-8-(1-methylethyl)-6-oxo-2-pteridinyl]amino]-3-methoxy-benzamide], the “T/C (ratio of median tumor volume of treated vs. control tumors)” value by setting is: (Example 1, Volasertib alone 10 mg/kg once weekly i.v.) 79%; (Example 2, Volasertib alone 20 mg/kg once weekly i.v.) 39%.

As to `Nc1ncn([C@@H]2O[C@H](CO)[C@@H](O)[C@H]2O)c(=O)n1` [azacitidine, Azacitidine], the “T/C (ratio of median tumor volume of treated vs. control tumors)” value (Example 1, Azacitidine alone 40 mg/kg once weekly i.v.) is 78% and the “T/C (ratio of median tumor volume of treated vs. control tumors)” value (Example 2, Azacitidine alone 40 mg/kg once weekly i.v.) was 78%.

The values are drawn from patent publication US20150031643A1, “COMBINATION TREATMENT OF ACUTE MYELOID LEUKEMIA AND MYELODYSPLASTIC SYNDROME II” (Boehringer Ingelheim International GmbH, priority 2013, published 2015).
